SMILES strings stand for the structures.

These results are taken from patent US20250353860A1, “PIPERIDINE CARBOXAMIDE AZAINDANE DERIVATIVE, METHOD FOR PREPARING SAME, AND USE THEREOF” (BRISE PHARMACEUTICALS CO., LTD., priority 2022, published 2025).

Data set [1] concerns the target T1, CGRP receptor (Homo sapiens, UniProt O60894+Q16602). Put plainly: Affinity for human CGRP receptor ([125I]h-CGRPα competition, CHO cell membranes). It is filed as binding. On the set-up: host or cells: CHO-K1. Particulars: 0.03 nM [125I]h-CGRPα; Cheng Prusoff; read-out: Ki of the affinity determination to human CGRP receptor. As to the method: The cell membrane homogenate of CHO cells expressing human CGRP receptor (comprising 16 μg of protein) was incubated with 0.03 nM [^125I]h-CGRPα and gradiently diluted test samples in buffer (50 mM Hepes-NaOH (pH 7.4), 10 mM MgCl2, 4 mM KCl, 10 mM […], 1 mM EDTA, 1 μM phosphorylation amide, 0.3% BSA and 0.04% bacitracin) at 22° C. for 90 minutes. A control group without the test sample was set up to obtain the highest binding signal of the experiment, and the non-specific binding of the experiment was determined by adding 1 μM non-isotope-labeled h-CGRPα to the control group. After the incubation, a glass fiber filter (GF/B, Packard) soaked with 0.3% PEI was placed in a 96-well cell collector (Unfilter, Packard), and the sample was quickly filtered under vacuum and rinsed several times with precooled buffer comprising 50 mM Tris-HCl and 150 mM NaCl. After the filter was dried, scintillation fluid (Microscint 0, Packard) was added and the radioactive signal value was measured using a scintillation counter (Topcount, Packard). The results are expressed as the percentage of inhibition of specific binding of the radioligand. Non-isotope labeled h-CGRPα was used as a standard sample as a control. The test samples and standard samples were tested at multiple concentrations to obtain a competition curve with [^125I]h-CGRPα, thereby calculating the IC50) 20 of each sample. The inhibition constant Ki was further calculated using the Cheng Prusoff equation: Ki=IC50/(1+L/KD), wherein L represents the concentration of [^125I]h-CGRPα in the system (0.03 nM), and KD represents the dissociation constant between [^125I]h-CGRPα and the human CORP receptor in the system (0.06 nM).

The target of data set [2] is T1, CGRP receptor. Put plainly: Inhibition of CGRP signaling pathway (cAMP, HTRF) in CHO-K1 cells expressing human CGRP receptors. In kind it is cell-based. On the set-up: host or cells: CHO-K1. To be noted: [α-CGRP]=10 ng/ml; increase in cAMP levels; read-out: IC50 of the inhibitory effect on the CGRP signaling pathway in CHO-K1 cells expressing human CGRP receptors. As for the experimental part:
The inhibitory effect of the CGRP signaling pathway in vitro is evaluated by measuring the cAMP level. The principle is that after CGRP binds to the CGRP receptor, the CGRP signaling pathway is activated, inducing an increase in the cAMP level. […] The specific experimental method is as follows:
CHO-K1 cells expressing human CGRP receptor (CGRPR/CHO-K1, PerkinElmer, ES-420-C) were cultured in F12K+10% FBS+400 μg/mL G418+10 μg/mL Blasticidin medium, and the cells were collected in the logarithmic growth phase. According to the instructions of the kit, the cells were resuspended in Stimulation Buffer comprising 0.5 mM IBMX, and 5 μL of the cell suspension was added to each well of a 96-well microplate (Cisbio, 66PL96025) at a cell density of 15,000 cells/well. 2.5 μL of gradient diluted compound solution was added to each well. After incubation at 37° C. for 30 minutes, 2.5 μL of 40 ng/ml human α-CGRP (Bachem, H-1470,0500) diluted in Stimulation Buffer comprising 0.5 mM IBMX was added to each well to a final concentration of 10 ng/ml. After incubation at 37° C. for 30 minutes, 5 μL of Anti-cAMP-Cryptate solution and 5 μL of cAMP-d2 solution were added to each well. After incubation at room temperature for 60 minutes, the HTRF signal was read using a microplate reader (Molecular Devices). Graphpad Prism was used to calculate the IC50 value of the compound's inhibitory effect on the increase in cAMP levels based on the compound concentration and HTRF signal.
In general terms: TR-FRET usually uses a lanthanide donor and a delayed reading to cut background.

Data set [3] in a line: Pharmacokinetics in SD rats by oral gavage. In kind it is in vivo. Particulars: for AUC / bioavailability / half-life / Cmax: male, Sprague-Dawley, rat, plasma, PO 10 mg/kg; for bioavailability: read-out: Bioavailability F; for half-life: read-out: Half-life period T½ (converted); for Cmax: read-out: Plasma concentration Cmax; for Pharmacokinetic properties compared with Atogepant: conclusion in words. The text has this:
SD rats were used as test animals, and the LC/MS/MS method was used to determine the drug concentration in plasma at different times after gavage and intravenous […] of the compound of the application, so as to study the pharmacokinetic characteristics of the compound of the application in rats.
Positive control compound Atogepant, Example 1A and Example 3A of the present application;
Eighteen healthy adult Sprague Dawley (SD) male rats were purchased from Joinn (Suzhou) New Drug Research Center Co., Ltd.
An appropriate amount of the compound to be tested was weighed, added with 100% polyethylene glycol 400, and vortexed to dissolve the compound. After the preparation was completed, it would be a colorless and transparent solution with a concentration of 2 mg/mL.
An appropriate amount of the compound to be tested was weighed, added 90% polyethylene glycol 400 and 10% ethanol, and vortexed to dissolve the compound. After the preparation was completed, it would be a colorless and transparent solution with a concentration of 1 mg/mL.
Eighteen healthy adult SD male rats were fasted overnight and fed 4 hours after drug administration.
About 0.2 mL of blood was collected from the jugular vein before administration and 0.083 hours, 0.25 hours, 0.5 hours, 1 hour, 2 hours, 4 hours, 6 hours, 8 hours, 10 hours and 24 hours after administration, and anticoagulated with EDTA-K2. After blood samples were collected, they were placed in labeled ice-water bath centrifuge tubes and rapidly centrifuged to separate plasma. The centrifugation conditions were: 4000 rpm, 10 minutes, 4° C. The collected plasma was stored at below −40° C. for testing. The content of the tested compounds in the plasma of SD rats after gavage and intravenous administration of different compounds was determined by LC-MS/MS.

Consider `C[C@@H]1[C@H](c2c(F)ccc(F)c2F)C[C@H](NC(=O)c2cnc3c(c2)C[C@@]2(C3)C(=O)Nc3ncccc32)C(=O)N1CC(F)(F)F` [Atogepant, reference compound], for which the Ki – broadly, a dissociation constant, usually derived from enzyme kinetics or from competition with a known ligand – at CGRP receptor [1] worked out at 0.0098 nM. Moreover, on CGRP receptor [2], the IC50 (as a rule, the point on the concentration scale where inhibition reaches its midpoint) is 1.5 nM. Besides, in data set [3], the AUC – broadly, the area under the concentration-time curve, a measure of exposure – was 2440 ± 1400 ng·h/mL; the bioavailability – broadly, the share of a dose that reaches the circulation, judged against a reference dose that is usually intravenous – came out at 12.5 ± 7.3%; the half-life (as a rule, the time needed for the level to fall by half in the phase considered) is 1.6 ± 0.3 h; the Cmax worked out at 560 ± 233 ng/mL.
For the compound `C[C@@H]1[C@H](c2c(F)ccc(F)c2F)C[C@H](NC(=O)c2cc3c(s2)C[C@]2(C3)C(=O)Nc3ncccc32)C(=O)N1CC(F)(F)F` [Example 3A, (S)—N-((3S,5S,6R)-6-methyl-2-oxo-1-(2,2,2-trifluoroethyl)-5-(2,3,6-trifluorophenyl)piperidin-3-yl)-2′-oxo-1′,2′,4,6-tetrahydrospiro[cyclopenta[b]thiophene-5,3′-pyrrolo[2,3-b]pyridine]-2-carboxamide], the Ki on CGRP receptor [1] was 0.019 nM. At CGRP receptor [2], the IC50 came out at 2.9 nM. In data set [3], the “Pharmacokinetic properties compared with Atogepant” value is given as “good pharmacokinetic properties”, the AUC was determined as 42500 ± 8520 ng·h/mL, the bioavailability worked out at 90.5 ± 19.1% and the half-life was 1.62 ± 0.2 h. Besides, the Cmax in data set [3] was 10500 ± 3730 ng/mL.
With `C[C@@H]1[C@H](c2c(F)ccc(F)c2F)C[C@H](NC(=O)c2cc3c(o2)CC[C@]2(C3)C(=O)Nc3ncccc32)C(=O)N1CC(F)(F)F` [Example 1A, (R)—N-((3S,5S,6R)-6-methyl-2-oxo-1-(2,2,2-trifluoroethyl)-5-(2,3,6-trifluorophenyl)piperidin-3-yl)-2′-oxo-1′,2′,6,7-tetrahydro-4H-spiro[benzofuran-5,3′-pyrrolo[2,3-b]pyridine]-2-carboxamide], the Ki on CGRP receptor [1] amounted to 0.017 nM. In addition, the half-inhibitory concentration (IC50) at CGRP receptor [2] is 14.5 nM. Also, in data set [3], the “Pharmacokinetic properties compared with Atogepant” value is “good pharmacokinetic properties”, the AUC worked out at 23200 ± 7950 ng·h/mL, the bioavailability amounted to 38.6 ± 13.3% and the half-life is 2.93 ± 0.6 h. Also, the Cmax in data set [3] is 3850 ± 1460 ng/mL.
